The subject of one data set is PA-1 ovarian teratoma. Description: Test Example 10: antitumor activity against human tumors, PA-1. The class given is cell-based. As to conditions: CDDP alone. The protocol: (§1) After the culture medium was removed with suction, the respective residues were washed once with cold PBS (-), supplemented with 2 ml portions of fresh medium and then cultured for further 72 hours. The cells were treated with trypsin, diluted and then counted using a Coulter counter.
(§2) Culture medium MEM: 10% fetal calf serum, Kanamycin (60 μg/ml)

The test system of data set [1] is MKN28 gastric adenocarcinoma. The data set is described as follows: Test Example 10: antitumor activity against human tumors, MKN28. It is filed as cell-based. As to conditions: CDDP alone. The protocol:
as §1, §2
MKN28: gastric adenocarcinoma;

Data set [2] deals with L1210 leukemic cells. The data set is described as follows: Test Example 7: in vitro antitumor activity, L1210. The class given is cell-based, mouse. As to conditions: test drug alone. The protocol:
(§3) Mouse L1210 and P388 leukemic cells were adjusted to 10^4 cells/ml in culture medium RPMI 1640, and the mixture was dispensed in 2 ml portions into culture test tubes (Falcon No. 2054) and cultured at 37° C. for 5 hours in the presence of 5% carbonic acid gas in a carbonic acid gas incubator. CDDP and/or SAMes were (was) then added into each culture test tube and incubation was continued for further one hour. The cultures were centrifuged at 1,600 rpm for 5 minutes and the culture medium was removed with suction. Two ml of RPMI 1640 was added to the residue and the mixture was cultured for 72 hours under the same conditions as described above, whereafter the number of cells in each of the resulting cultures was measured on a Coulter counter (Model ZB).

The test system of data set [3] is ACHN renal adenocarcinoma. The data set is described as follows: Test Example 10: antitumor activity against human tumors, ACHN. To be noted: CDDP alone. The class given is cell-based. The protocol: as §1, §2
ACHN: renal adenocarcinoma

The next data set concerns mouse tumors. Description: Antitumor activity in vitro, mouse tumors (summary). The class given is cell-based. To be noted: CDDP alone. As to the method: as §3
(§4) Mouse Colon 26 colon tumor cells were adjusted to 5×10^3 cells/ml in culture medium […] culture was dispensed in 2 ml portions into culture Petri dishes. […] The culture medium was removed with suction, and after washing once with cold PBS(-) 2 ml portions of fresh medium were dispensed into the cultures, which were then cultured for further 72 hours. The cells were treated with trypsin, diluted and then counted using a Coulter counter.

Another data set deals with human tumors. The data set is described as follows: Antitumor activity in vitro, human tumors (summary). The class given is cell-based. As to conditions: CDDP alone. As to the method: Human tumor cells which are listed below were adjusted to 5×10^3 -2×10^4 cells/ml in culture medium RPMI 1640 (N.B. 1) or MEM (N.B. 2), and the respective cultures were dispensed in 2 ml portions into culture Petri dishes. […] After the culture medium was removed with suction, the respective residues were washed once with cold PBS (-), supplemented with 2 ml portions of fresh medium and then cultured for further 72 hours. The cells were treated with trypsin, diluted and then counted using a Coulter counter.

In a further data set the test system is P388 leukemic cells. Description: Test Example 7: in vitro antitumor activity, P388. It is filed as cell-based, mouse. As to conditions: CDDP alone. As to the method:
The cultures were centrifuged at 1,600 rpm for 5 minutes and the culture medium was removed with suction.

The test system of data set [4] is WiDr colon adenocarcinoma. The data set is described as follows: Test Example 10: antitumor activity against human tumors, WiDr. The class given is cell-based. As to conditions: CDDP alone. As to the method:
as §1, §2
WiDr: colon adenocarcinoma;

The subject of data set [5] is DLD-1 colon adenocarcinoma. The data set is described as follows: Test Example 10: antitumor activity against human tumors, DLD-1. To be noted: CDDP alone. The class given is cell-based. As to the method:
as §1, §2
DLD-1: colon adenocarcinoma;

For data set [6], the system named is MCAS ovarian cyst adenocarcinoma. Description: Test Example 10: antitumor activity against human tumors, MCAS. The class given is cell-based. To be noted: CDDP alone. As to the method:
as §1, §2
MCAS: ovarian cyst adenocarcinoma;

For data set [7], the system named is L1210 leukemic cells. Description: Test Example 11: potentiation by intraperitoneally or intravenously administered SAMe against mouse tumor L1210. It is filed as in vivo, mouse (CDF1).
Excerpt: Groups each containing six 8- to 9-week-old male CDF1 mice weighing 24-28 g were used. Mouse L1210 leukemic cells (10^5 cells) were transplanted into the abdominal cavity (on day 0).
Another data set concerns LU65 pulmonary cancer. Description: Test Example 10: antitumor activity against human tumors, LU65. As to conditions: CDDP alone. The class given is cell-based. As to the method:
as §1, §2

Data set [8] concerns L1210 leukemic cells. Description: Test Example 8: in vivo potentiation of antitumor activity of CDDP, L1210. On the set-up: species or system mouse (CDF1 strain). To be noted: for Animals showing 30 days of survival / ILS: days 1 and 5; for Change in body weight: day 7 minus day 1. From the text: Groups each containing six 8-week-old male mice of the CDF1 strain, weighing 24-28 g, were used. Mouse L1210 leukemic cells (10^5 cells) were transplanted into the abdominal cavity (on day 0).
wherein T stands for the average number of days of survival in the CDDP-administered groups of animals, and C for that in the non-CDDP-administered group (control group) of animals.
When the animals survived 30 days or more, the number of days of survival was deemed as 30 days for the purpose of calculation.
The administration was carried out intraperitoneally each time (on days 1 and 5). […] And the changes in body weight are presented as the difference between the mean body weights on days 1 and 7 (average body weight on day 7--average body weight on day 1) for each group.

The test system of data set [9] is Colon 26 colon tumor cells. Description: Test Example 9: in vitro antitumor activity, Colon 26. The class given is cell-based, mouse. To be noted: CDDP alone. The protocol:
as §4

The test system of data set [10] is A549 pulmonary adenocarcinoma. Description: Test Example 10: antitumor activity against human tumors, A549. It is filed as cell-based. As to conditions: CDDP alone. As to the method:
as §1, §2
A549: pulmonary adenocarcinoma;

The test system of data set [11] is MKN45 gastric adenocarcinoma. Description: Test Example 10: antitumor activity against human tumors, MKN45. The class given is cell-based. As to conditions: CDDP alone. The protocol: as §1, §2
MKN45: gastric adenocarcinoma;

Data set [12] deals with nephrotoxicity caused by CDDP. Description: Test Example 2: nephrotoxicity (BUN) after single administration of CDDP in the dog. The class given is in vivo, dog (beagle). To be noted: for BUN concentration: mean ± SD. As to the method:
Nine beagle dogs (weighing 10.2-14.5 kg; 24-36 months of age) were divided into three groups of three animals each. […] BUN values were measured every two days after the administration and compared.

For the next data set, the system named is tumor cells. Description: Antitumor activity, all tumor cells tested (summary). To be noted: SAMe alone, respective tumor cells. It is filed as cell-based, mouse and human. The protocol:
as §3
Mouse Colon 26 colon tumor cells were adjusted to 5×10^3 cells/ml in culture medium […] culture was dispensed in 2 ml portions into culture Petri dishes. […] The cells were treated with trypsin, diluted and then counted using a Coulter counter.
Human tumor cells which are listed below were adjusted to 5×10^3 -2×10^4 cells/ml in culture medium RPMI 1640 (N.B. 1) or MEM (N.B. 2), and the respective cultures were dispensed in 2 ml portions into culture Petri dishes. […] The cells were treated with trypsin, diluted and then counted using a Coulter counter.

For data set [13] the following is noted: in vivo, iv.
For data set [14] the following is noted: intraperitoneal administration, rat; cited from earlier work.
The format of data set [15] is in vivo, rat (SD strain). As to conditions: for Concentration of SH compounds in blood plasma (as converted to glutathione concentration) / Concentration of SH compounds in renal tissue (as converted to glutathione concentration): mean ± S.D. The protocol: Test method: To 6-week-old rats of the SD strain was intravenously administered SAMe in physiological saline (30 mg/kg, pH 6), and the blood level of SH group-containing compounds in the renal tissue was measured thereafter at 30, 60 and 120 minutes (N. Kaplowits et al., J. Pharmacol. Exp. Ther. , 1977, 200, 279-286) .
The values in the table for the concentration of SH compounds in the renal tissue and blood plasma presented as means ± standard deviation as calculated on the assumption that all the SH compounds were glutathione.

Where [16] appears, read: 30 min after SAMe 30 mg/kg i.v.
Setting [17] is: 60 min after SAMe 30 mg/kg i.v.
The mark [18] stands for this setting: 120 min after SAMe 30 mg/kg i.v.

Where two headings read alike, the source gives them in different places.

Consider two molecules from patent publication US5466678A, “Co-administration of S-adenosyl-L-methionine to reduce the nephrotoxicity of cisplatin therapy” (priority 1992, dated 1995).

In the case of `N.N.[Cl][Pt][Cl]` [CDDP, cis-diamine-dichloroplatinum], the IC50 (usually the concentration needed to halve the response being measured) in the data set on PA-1 ovarian teratoma is 4.1 µM; in data set [1], 62.8 µM; with L1210 leukemic cells [2], 16.2 µM; in [3], 48.4 µM; in the data set on mouse tumors it was 3.5 to 41.7 µM; in the data set on human tumors it was 4.1 to 150 µM. Moreover, the IC50 with P388 leukemic cells was determined as 3.5 µM; in data set [4], 37.7 µM; in [5], 23.5 µM; in data set [6] it was 150 µM; in the data set on LU65 pulmonary cancer, 20.3 µM; in data set [9], 41.7 µM. Further, the figures for the IC50 in [10] and in data set [11] were 18.7 µM and 25.4 µM, respectively. For the same molecule, the ILS (as a rule, how much longer treated animals lived than controls) in the data set on L1210 leukemic cells [7] (CDDP 4 mg/kg alone, intraperitoneal) came out at 78%; with L1210 leukemic cells [7] (CDDP 4 mg/kg alone, intravenous) it was 28%; in the data set with L1210 leukemic cells [7] (CDDP 6 mg/kg alone, intraperitoneal), 84%; in the data set on L1210 leukemic cells [8] (CDDP 4 mg/kg alone i.p.), 73%; with L1210 leukemic cells [8] (CDDP 6 mg/kg alone i.p.), 121%. The “Animals showing 30 days of survival” value in the data set with L1210 leukemic cells [8] (CDDP 4 mg/kg alone i.p.) and with L1210 leukemic cells [8] (CDDP 6 mg/kg alone i.p.) was 0/6 in each case. Moreover, the results for the “Change in body weight” value in the data set on L1210 leukemic cells [8] (CDDP 4 mg/kg alone i.p.) and with L1210 leukemic cells [8] (CDDP 6 mg/kg alone i.p.) were -2.4 g and -4.5 g, respectively.

With `C[S+](CC[C@H](N)C(=O)O)C[C@H]1O[C@@H](n2cnc3c(N)ncnc32)[C@H](O)[C@@H]1O` (stereo partly drawn) [SAMe, S-adenosyl-L-methionine], the BUN concentration in data set [12] (SAMe 30 mg/kg i.v. with CDDP 4 mg/kg, day 1) was determined as 15.0 ± 1.04 mg/dL; in data set [12] (SAMe 30 mg/kg i.v. with CDDP 4 mg/kg, day 6), 167.2 ± 102.30 mg/dL; in data set [12] (SAMe 30 mg/kg i.v. with CDDP 4 mg/kg, day 12), 41.62 ± 0.00 mg/dL; in data set [12] (SAMe 100 mg/kg i.v. with CDDP 4 mg/kg, day 1), 13.4 ± 2.80 mg/dL; in data set [12] (SAMe 100 mg/kg i.v. with CDDP 4 mg/kg, day 6), 27.6 ± 19.151 mg/dL; in data set [12] (SAMe 100 mg/kg i.v. with CDDP 4 mg/kg, day 12), 25.5 ± 13.36 mg/dL. In [12] (SAMe 30 mg/kg with CDDP 4 mg/kg), the “Mortality by day 7” value is recorded as “two out of the three animals”. Further, the IC50 is greater than 1000 µM with L1210 leukemic cells [2] (Mus musculus) and no less than 1000 µM in the data set on tumor cells. The “Distribution to renal tissue” value in [13] is “concentrates specifically at the renal tissue”. Further, in data set [13], the “Metabolism at the renal tissue” value was “converted through the process of transmethylation to S-adenosylhomocysteine”. Moreover, the LD50 in [14] is 2,000-2,500 mg/kg. In addition, the “Concentration of SH compounds in blood plasma (as converted to glutathione concentration)” value came out at 12.2 ± 2.7 μg/ml blood plasma in [15] (setting [16]), 12.5 ± 2.1 μg/ml blood plasma in data set [15] (setting [17]) and 18.5 ± 3.0 μg/ml blood plasma in [15] (setting [18]). For the same molecule, the “Concentration of SH compounds in renal tissue (as converted to glutathione concentration)” value in data set [15] (setting [16]) turned out to be 1219.3 ± 68.3 μg/g organ; in [15] (setting [17]), 1256.0 ± 125.3 μg/g organ; in data set [15] (setting [18]) it was 1201.1 ± 37.8 μg/g organ. For the same molecule, the “Accumulation in renal tissue” value in [15] (rat, in vivo, iv) is on record as “accumulate the SAMe specifically in the renal tissue”.
